Test results: US20260374829A1, “METHODS AND PLATFORM RELATED TO FLUORESCENT PROTEIN BIOSENSORS” (BOARD OF REGENTS, THE UNIVERSITY OF TEXAS SYSTEM, priority 2023, published 2026)

How the values were obtained:
[1] = test system: free ADPR sensor (cpVenus integrated between amino acids 118 and 119 of Shewanella oneidensis NrtR, Uniprot Q8EFJ3; K435A, S436D, D122N), SEQ ID NO: 1; experiment: Fluorescence response of purified free ADPR sensor to ligands in vitro; format: binding; conditions: role: ligand; for sensor fluorescence response (in words): FIG. 5A; for sensor responsivity (in words): structurally related molecules, FIG. 5
Description: (§1) The sensor is based on a circularly-permutated single fluorescent protein design (Baird et al, 1999 PNAS and reviewed in Nasu et al, 2021 Nat Chem Biol). For the fluorescence readout, the GFP-derived fluorescent protein, Venus, was used. Venus was circularly permutated and reforms to its fluorescent beta barrel fold by introducing a cut between amino acids 144 and 145 and connecting its original N- and C-termini with a 5 amino acid GGSGG linker sequence (circularly permutated Venus now referred to as cpVenus or cpV). Circular permutation permits attachment of an analyte binding domain in close proximity to the chromophore of Venus. The analyte binding domain confers selectivity of ligand binding to the sensor. The Nudix-like bacterial transcription factor NrtR from Shewanella oneidensis was used that is an ADPR-dependent transcriptional repressor (Rodionov et al, 2008 Nucleic Acids Res; Gao et al, 2019 eLIFE). The cpV protein was integrated between amino acids 118 and 119 in the sequence of NrtR (Uniprot Q8EFJ3).
Based on these analyses, cpV integrated into site 118/119 in NrtR was chosen for further analyses. This site is adjacent to the hinge region of the ligand-binding site, and it is within an alpha-helix that undergoes a disruptive loss of secondary structure when free ADPR binds (FIG. 1). The model is that this structural change is transduced to the nearby chromophore of cpV to cause a change in fluorescence intensity. This may occur through disruption of the chromophore or shifting the pKa of the chromophore.
Due to the compact nature of NrtR, attempts to use truncation to eliminate the DNA-binding domain appeared to destabilize the whole protein and thus could not be used. Instead, three point mutations were identified and used to ablate the outward facing overall positive change on this domain. These point mutations are distinct from the ligand-binding domain. The specific sites and their mutations (K435A and S436D) were identified through empirical screening and it was determined that in combination they alleviated aggregation of the sensor when it was ectopically expressed (FIG. 2).
The mutation D122N was also incorporated to reduce the number of polar and charged side-chains in proximity to the sensor's chromophore. The rationale was that charged residues could shift the local pKa of the chromophore promoting in its protonation. Introduction of D122N improved the brightness of the sensor and stabilized its pH-sensitivity between pH 7.4-8.0 (FIG. 3)
The sequence of the free ADPR sensor is shown in SEQ ID NO: 1.
The purified sensor (FIG. 4) decreased in fluorescence intensity with addition of free ADPR. At high concentrations, it saturated with ~80% diminishment of sensor brightness that represented an […] dose-dependent response (FIG. 4B, red). […] It was determined that the sensor responds to free ADPR with a Kd~2 μM±1 μM and is thus poised to detect intracellular free ADPR concentrations (Heiner, et al, 2006 Biochem J; Gasser and Guse, 2005 J Chromatogr B Analyt Technol Biomed Life Sci; Gasser et al, 2006 J Biol Chem).

free ADPR sensor = experiment: Free ADPR sensor response in live cells to H2O2 treatment (confocal microscopy); format: cell-based; conditions: role: activator (oxidation stress), acute H2O2 treatment, FIG. 7
Procedure: (§2) Values are mean (F/F0)±SD, analyzed by confocal microscopy.
(§3) With confocal imaging, it was determined that the free ADPR sensor responded in live cells to an accumulation of free ADPR upon oxidation stress by acute H2O2 treatment (FIG. 7). In this experimental paradigm, H2O2 induces PARP1/2 to generate poly-ADPR chains, and due to the activities of glycohydrolases, this in turn leads to increased levels of free ADPR monomers. […] The generation of free ADPR was confirmed by a GCaMP7s sensor that monitored the resulting Ca^2+ influx from activation of co-expressed TRPM2 (FIG. 7B).

TRPM2 = TRPM2 response in live cells to H2O2 treatment, Ca2+ influx reported by GCaMP7s; format: cell-based; conditions: role: activator (via increased free cytosolic ADPR), GCaMP7s readout, FIG. 7B
Procedure: as §2, §3

[2] = test system: free ADPR sensor no binding control R98E (cpVenus in Shewanella oneidensis NrtR, Uniprot Q8EFJ3; binding pocket mutant R98E), SEQ ID NO: 2; experiment: Fluorescence response of non-binding control sensor to ligands in vitro; conditions: role: ligand, FIG. 4B
Description: as §1
The purified sensor (FIG. 4) decreased in fluorescence intensity with addition of free ADPR. At high concentrations, it saturated with ~80% diminishment of sensor brightness that represented an ~4-fold dose-dependent response (FIG. 4B, red). […]

PARP1/2 = experiment: Free ADPR sensor response in live cells after acute H2O2 treatment (confocal imaging), with PARP1/2 inhibitor; format: cell-based; conditions: role: inhibitor (PARP1/2), FIG. 7
Procedure: as §2, §3

Structure (SMILES) | sensor fluorescence response (in words) [1] | other results
Nc1ncnc2c1ncn2[C@@H]1O[C@@H]2COP(=O)(O)OP(=O)(O)OC[C@H]3OC(O[C@@H]1[C@@H]2O)[C@H](O)[C@@H]3O [2′-cyclic ADPR] | does not respond | 
Nc1ncnc2c1ncn2[C@H]1C[C@H](O)[C@@H](COP(=O)(O)OP(=O)(O)OC[C@H]2OC(O)[C@H](O)[C@@H]2O)O1 (stereo partly drawn) [2′-deoxy ADPR] | responds | 
Nc1ncnc2c1ncn2[C@@H]1O[C@@H]2COP(=O)(O)OP(=O)(O)OC[C@H]3OC(O[C@H]2[C@H]1O)[C@H](O)[C@@H]3O [3′-cyclic ADPR] | does not respond | 
Nc1ncnc2c1ncn2[C@@H]1O[C@H](COP(=O)(O)OP(=O)(O)O)[C@@H](O)[C@H]1O [ADP, adenosine diphosphate] | does not respond | sensor responsivity (in words) [1]: minimal responsivity
Nc1ncnc2c1ncn2[C@@H]1O[C@H](COP(=O)(O)O)[C@@H](O)[C@H]1O [AMP, adenosine monophosphate] | does not respond | 
Nc1ncnc2c1ncn2[C@@H]1O[C@H](COP(=O)(O)OP(=O)(O)OP(=O)(O)O)[C@@H](O)[C@H]1O [ATP, adenosine triphosphate] | does not respond | sensor responsivity (in words) [1]: minimal responsivity
OO [H2O2] |  | free ADPR sensor response to accumulation of free ADPR (in words) (free ADPR sensor): responded; TRPM2 response, influx of intracellular Ca2+ (in words) (TRPM2): responds with an influx of intracellular Ca^2+
Nc1ncnc2c1ncn2[C@@H]1O[C@H](COP(=O)(O)OP(=O)(O)OC[C@H]2O[C@@H]([n+]3cccc(C(=O)O)c3)[C@H](O)[C@@H]2O)[C@@H](O)[C@H]1O [NAAD^+] | does not respond | 
NC(=O)C1=CN([C@@H]2O[C@H](COP(=O)(O)OP(=O)(O)OC[C@H]3O[C@@H](n4cnc5c(N)ncnc54)[C@H](O)[C@@H]3O)[C@@H](O)[C@H]2O)C=CC1 [NADH, nicotinamide adenine dinucleotide] | does not respond | 
NC(=O)c1ccc[n+]([C@@H]2O[C@H](COP(=O)(O)OP(=O)(O)OC[C@H]3O[C@@H](n4cnc5c(N)ncnc54)[C@H](O)[C@@H]3O)[C@@H](O)[C@H]2O)c1 [NAD^+, oxidized nicotinamide adenine dinucleotide] | does not respond | 
Nc1ncnc2c1ncn2[C@@H]1O[C@H](COP(=O)(O)OP(=O)(O)OC[C@H]2O[C@@H]([n+]3cccc(C(=O)O)c3)[C@H](O)[C@@H]2O)[C@@H](O)[C@H]1OP(=O)(O)O [NaADP^+] | does not respond | 
CC(=O)O[C@H]1C(O)O[C@H](COP(=O)(O)OP(=O)(O)OC[C@H]2O[C@@H](n3cnc4c(N)ncnc43)[C@H](O)[C@@H]2O)[C@H]1O (stereo partly drawn) [O-Acetyl ADPR] | responds | 
O=C(CO)[C@H](O)[C@H](O)COP(=O)(O)O [Ribulose-5-Phosphate] | does not respond | 
N=c1c2ncn3c2ncn1[C@@H]1O[C@H](COP(=O)(O)OP(=O)(O)OC[C@H]2O[C@@H]3[C@H](O)[C@@H]2O)[C@@H](O)[C@H]1O [cyclic ADPR] | does not respond | 
Nc1ncnc2c1ncn2[C@@H]1O[C@H](COP(=O)(O)OP(=O)(O)OC[C@H]2OC(O)[C@H](O)[C@@H]2O)[C@@H](O)[C@H]1O (stereo partly drawn) [free ADPR, Adenosine 5′Di-Phosphate Ribose] | responds | fluorescence intensity with increasing free ADPR concentrations (in words) ([1]; FIG. 4B, mean of n=3): decreases; diminishment of sensor brightness at saturation ([1]; at high concentrations (saturated)): ~ 80%; dose-dependent response (fold) ([1]; fluorescence intensity, at saturation): ~ 4 fold; response of binding mutant to free ADPR (in words) [2]: did not respond
O=C(c1cc(Cc2n[nH]c(=O)c3ccccc23)ccc1F)N1CCN(C(=O)C2CC2)CC1 [olaparib] |  | effect on H2O2-induced free ADPR sensor responses (in words) (PARP1/2): eliminated sensor responses
Nc1ncnc2c1ncn2[C@@H]1O[C@H](COP(=O)(O)OP(=O)(O)OC[C@H]2OC(O)[C@H](O)[C@@H]2O)[C@@H](O)[C@H]1OP(=O)(O)O (stereo partly drawn) [phospho ADPR] | responds | 
